In brackets after ≈: the same amount, converted by molar mass.
Experiments:
L1210 = test: Cytotoxicity against mouse L1210 cells; assay type: functional, cell-based
KB = test: Cytotoxicity against human KB cells; assay type: functional, cell-based

For `CC(C)=CC(=O)NCC(O)C1=CC(=O)c2nccc3c2c1nc1ccccc13` (configuration not stated) [CYSTODYTIN D], the IC50 (L1210) was 1.1 µg/mL (≈ 2.95 µM) and the IC50 (KB) was 1.4 µg/mL (≈ 3.75 µM).
For `C/C=C(\C)C(=O)NCC(O)C1=CC(=O)c2nccc3c2c1nc1ccccc13` (configuration not stated) [CYSTODYTIN E], the IC50 (L1210) was 1.1 µg/mL (≈ 2.95 µM) and the IC50 (KB) was 1.4 µg/mL (≈ 3.75 µM).
`COC(CNC(=O)C=C(C)C)C1=CC(=O)c2nccc3c2c1nc1ccccc13` (configuration not stated) [CYSTODYTIN F] gave an IC50 (L1210) of 0.068 µg/mL (≈ 0.176 µM) and an IC50 (KB) of 0.078 µg/mL (≈ 0.201 µM).
Work on `C/C=C(\C)C(=O)NCC(OC)C1=CC(=O)c2nccc3c2c1nc1ccccc13` (configuration not stated) [CYSTODYTIN G] yielded an IC50 (L1210) of 0.068 µg/mL (≈ 0.176 µM) and an IC50 (KB) of 0.078 µg/mL (≈ 0.201 µM).
Compound `CCCCCCCC/C=C/CCCCCCCC(=O)OC(CNC(=O)C=C(C)C)C1=CC(=O)c2nccc3c2c1nc1ccccc13` (configuration not stated) [CYSTODYTIN H] has an IC50 (L1210) of 0.08 µg/mL (≈ 0.125 µM) and an IC50 (KB) of 0.092 µg/mL (≈ 0.144 µM).
For `C/C=C(\C)C(=O)NCC(OC(=O)CCCCCCC/C=C/CCCCCCCC)C1=CC(=O)c2nccc3c2c1nc1ccccc13` (configuration not stated) [CYSTODYTIN I], the IC50 (L1210) was 0.08 µg/mL (≈ 0.125 µM) and the IC50 (KB) was 0.092 µg/mL (≈ 0.144 µM).

Reference: ChEMBL document CHEMBL1150204, “Cystodytins D-I, new cytotoxic tetracyclic aromatic alkaloids from the Okinawan marine tunicate Cystodytes dellechiajei” (J Nat Prod, 1991)
